{"source": "patent US11279702B2", "about": "“AMPK activators” (Kallyope, Inc., priority 2020, dated 2022)", "key": {"[1]": {"test_system": "Mouse In Vivo Chemotherapy-Induced Intestinal Injury Model", "assay": "Diarrhea in chemotherapy (5FU)-induced intestinal injury model", "parameters": "species or system BALB/c mice", "experimental": "Compounds were formulated in vehicle (0.25% methyl cellulose, 5% Tween 80, 0.02% sodium dodecyl sulfate (SDS) in Hanks' Buffered Salt Solution with Ca2+ and Mg2+). On day 1, either saline or a 400 mg/kg dose of 5-fluorouracil (5FU) in saline was administered by intraperitoneal injection to BALB/c mice. Starting on day 2, vehicle or compound was administered once or twice a day by oral gavage. In some instances, compound was also administered once or twice a day by oral gavage from day −3 to day −1 (pre-5FU). From days 5 to 6 post-5FU, the animals were scored for diarrhea severity once a day. The diarrhea was scored 0-3 as follows: 0—normal consistency (black and solid), 1—soft (black and a bit lighter/yellow), 2—loosely shaped stool (yellowish and somewhat watery), 3—extreme diarrhea (very watery). Day 5 and day 6 diarrhea scores following administration of certain compounds were lower than vehicle control mice. […] In addition, Compound 1 was efficacious at doses as low as 3 mg/kg BID (6 mg/kg total daily dose)."}, "[2]": {"test_system": "Acetyl CoA Carboxylase (ACC) Phosphorylation in Mouse Muscle", "assay": "Level of ACC phosphorylation in mouse muscle", "assay_type": "in vivo, C57BL/6J mice", "experimental": "Systemic AMPK target engagement in vivo can be assessed by measuring the site-specific phosphorylation of a direct AMPK substrate, acetyl-coenzyme A carboxylase (ACC), in a well perfused tissue such as muscle.\nCompounds were formulated in vehicle (0.25% methyl cellulose, 5% Tween 80, 0.02% sodium dodecyl sulfate (SDS) in Hanks' Buffered Salt Solution with Ca^2+ and Mg^2+). Male C57BL/6J mice were administered vehicle or compound once daily for 5 days. On the final day of dosing (day 1 for acute assessment, day 5 for sub-chronic assessment), mice were euthanized by cervical dislocation five hours post dose and samples of skeletal muscle (gastrocnemius) were removed and snap frozen in liquid nitrogen.\nFrozen muscle tissues were homogenized. Homogenates were analyzed for protein concentration and equal amounts of protein were assayed for total and phosphorylated ACC (p-ACC) levels using Meso Scale Discovery's Multi-array assay kit. The ratio of p-ACC/total ACC was determined for each sample."}, "[3]": {"assay": "Concentrations in colon post oral dosing", "assay_type": "in vivo, mouse", "settings": "PO 30 mg/kg", "experimental": "A time course for colonic exposure to Compound A1 was determined in mouse following a single bolus oral (PO) gavage of 30 mg/kg of A1. Whole colon from cecum to rectum was collected at 2, 4, 6, and 8 hours post-dose and snap frozen. Tissue was homogenized and the concentration of A1 was measured."}}}
{"smiles": "O=C(O)CSc1nc2nc(-c3ccc(-c4ccccc4O)cc3)c(Cl)cc2[nH]1", "note": "[Compound 1, 2-((6-chloro-5-(2′-hydroxy-[1,1′-biphenyl]-4-yl)-1H-imidazo[4,5-b]pyridin-2-yl)thio)acetic Acid]", "values": [{"measurement": "Diarrhea Score % Change vs. Vehicle", "setting": "[1]; 3 mg/kg BID, Day 5", "result": "−17", "unit": "%"}, {"measurement": "Diarrhea Score", "setting": "[1]; 3 mg/kg BID, Day 5, score 0-3", "result": 0.50}, {"measurement": "Diarrhea Score % Change vs. Vehicle", "setting": "[1]; 3 mg/kg BID, Day 6", "result": "−56", "unit": "%"}, {"measurement": "Diarrhea Score", "setting": "[1]; 3 mg/kg BID, Day 6, score 0-3", "result": 0.75}, {"measurement": "Diarrhea Score % Change vs. Vehicle", "setting": "[1]; 10 mg/kg BID, Day 5", "result": "−28", "unit": "%"}, {"measurement": "Diarrhea Score", "setting": "[1]; 10 mg/kg BID, Day 5, score 0-3", "result": 0.43}, {"measurement": "Diarrhea Score % Change vs. Vehicle", "setting": "[1]; 10 mg/kg BID, Day 6", "result": "−71", "unit": "%"}, {"measurement": "Diarrhea Score", "setting": "[1]; 10 mg/kg BID, Day 6, score 0-3", "result": 0.50}, {"measurement": "Diarrhea Score % Change vs. Vehicle", "setting": "[1]; 30 mg/kg BID, Day 5", "result": "−100", "unit": "%"}, {"measurement": "Diarrhea Score", "setting": "[1]; 30 mg/kg BID, Day 5, score 0-3", "result": 0}, {"measurement": "Diarrhea Score % Change vs. Vehicle", "setting": "[1]; 30 mg/kg BID, Day 6", "result": "−66", "unit": "%"}, {"measurement": "Diarrhea Score", "setting": "[1]; 30 mg/kg BID, Day 6, score 0-3", "result": 0.57}, {"measurement": "Diarrhea Score % Change vs. Vehicle", "setting": "[1]; 30 mg/kg QD, Day 5", "result": "−30", "unit": "%"}, {"measurement": "Diarrhea Score", "setting": "[1]; 30 mg/kg QD, Day 5, score 0-3", "result": 0.63}, {"measurement": "Diarrhea Score % Change vs. Vehicle", "setting": "[1]; 30 mg/kg QD, Day 6", "result": "−58", "unit": "%"}, {"measurement": "Diarrhea Score", "setting": "[1]; 30 mg/kg QD, Day 6, score 0-3", "result": 0.75}, {"measurement": "Diarrhea Score % Change vs. Vehicle", "setting": "[1]; 100 mg/kg BID, Day 5", "result": "−63", "unit": "%"}, {"measurement": "Diarrhea Score", "setting": "[1]; 100 mg/kg BID, Day 5, score 0-3", "result": 0.38}, {"measurement": "Diarrhea Score % Change vs. Vehicle", "setting": "[1]; 100 mg/kg BID, Day 6", "result": "−79", "unit": "%"}, {"measurement": "Diarrhea Score", "setting": "[1]; 100 mg/kg BID, Day 6, score 0-3", "result": 0.38}, {"measurement": "% p-ACC/ACC ratio change vs. Vehicle, Sub-chronic (5 days)", "setting": "[2]; 30 mg/kg once daily for 5 days, five hours post dose, gastrocnemius", "result": 29.6, "unit": "%"}, {"measurement": "% p-ACC/ACC ratio change vs. Vehicle, Acute (5 hr)", "setting": "[2]; 30 mg/kg, day 1, five hours post dose, gastrocnemius", "result": 6.6, "unit": "%"}, {"measurement": "ratio of pACC/total ACC compared with vehicle control mice", "setting": "[2]; 30 mg/kg, one-way ANOVA vs vehicle (Dunnett's post-test)", "result": "not significantly changed"}]}
{"smiles": "O=C(O)CSc1nc2cc(-c3ccc(-c4ccccc4O)cc3)c(Cl)cc2[nH]1", "note": "[Compound A1]", "values": [{"measurement": "colonic exposure profile", "setting": "[3]; 2 to 8 hours post-dose", "result": "122 to 255", "unit": "µM"}, {"measurement": "concentration in colon", "setting": "[3]; 2 h post dosing", "result": 254, "unit": "µM"}, {"measurement": "concentration in colon", "setting": "[3]; 4 h post dosing", "result": 122, "unit": "µM"}, {"measurement": "concentration in colon", "setting": "[3]; 6 h post dosing", "result": 128, "unit": "µM"}, {"measurement": "concentration in colon", "setting": "[3]; 8 h post dosing", "result": 205, "unit": "µM"}, {"measurement": "Diarrhea Score % Change vs. Vehicle", "setting": "[1]; 30 mg/kg QD, Day 5", "result": "+38%"}, {"measurement": "Diarrhea Score", "setting": "[1]; 30 mg/kg QD, Day 5, score 0-3", "result": 1.38}, {"measurement": "Diarrhea Score % Change vs. Vehicle", "setting": "[1]; 30 mg/kg QD, Day 6", "result": "−29", "unit": "%"}, {"measurement": "Diarrhea Score", "setting": "[1]; 30 mg/kg QD, Day 6, score 0-3", "result": 1.25}]}
